Test results reported in patent publication US12209087B2, “AKT1 modulators” (Alterome Therapeutics, Inc., priority 2022, dated 2025).

The compounds below were run against T1, full length AKT E17K (Homo sapiens, UniProt P31749, E17K) (assay: NanoBRET Target Engagement (TE) Assay). Settings: competitive tracer displacement in living cells, read-out: AKT1 E17K IC50.
T1 construct: host or cells: HEK-293 (ATCC CRL-1573)
Type: cell-based
Summary of the method: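 Compound and tracer incubated 2 h before luminescence at donor 450 nm and acceptor 600 nm, with extracellular signal inhibited. EC50 by sigmoidal variable-slope regression.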

T1 sequence (P31749 whole entry E17K): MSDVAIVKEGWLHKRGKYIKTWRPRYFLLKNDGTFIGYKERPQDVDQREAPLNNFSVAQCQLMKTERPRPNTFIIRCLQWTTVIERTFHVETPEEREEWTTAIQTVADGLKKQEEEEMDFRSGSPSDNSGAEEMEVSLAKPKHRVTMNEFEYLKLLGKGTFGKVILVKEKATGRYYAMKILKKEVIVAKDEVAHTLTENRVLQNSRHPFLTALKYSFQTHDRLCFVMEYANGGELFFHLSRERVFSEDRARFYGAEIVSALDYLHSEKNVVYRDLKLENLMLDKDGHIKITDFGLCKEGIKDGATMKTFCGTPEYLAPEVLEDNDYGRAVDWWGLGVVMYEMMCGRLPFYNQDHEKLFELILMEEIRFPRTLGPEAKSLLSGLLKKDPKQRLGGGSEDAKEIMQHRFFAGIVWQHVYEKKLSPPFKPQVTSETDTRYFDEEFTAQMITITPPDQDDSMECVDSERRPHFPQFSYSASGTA

IC50 [µM] | SMILES
0.015 to 0.06 | N#Cc1cc(N2CCN(Cc3ccc(-n4c(-c5cccnc5N)nc5ccc(-c6ccccc6)nc54)cc3)CC2)cnn1 [Example 159, 5-(4-(4-(2-(2-Aminopyridin-3-yl)-5-phenyl-3H-imidazo[4,5-b]pyridin-3-yl)benzyl)piperazin-1-yl)pyridazine-3-carbonitrile]
0.06 to 0.6 | N#Cc1nccnc1C(=O)N1CCN(Cc2ccc(-n3c(-c4cccnc4N)nc4ccc(-c5ccccc5)nc43)cc2)CC1 [Example 163, 3-(4-(4-(2-(2-aminopyridin-3-yl)-5-phenyl-3H-imidazo[4,5-b]pyridin-3-yl)benzyl)piperazine-1-carbonyl)pyrazine-2-carbonitrile]
0.015 to 0.06 | N#Cc1ccc(C(=O)N2CCN(Cc3ccc(-n4c(-c5cccnc5N)nc5ccc(-c6ccccc6)nc54)cc3)CC2)cn1 [Example 166, 5-(4-(4-(2-(2-Aminopyridin-3-yl)-5-phenyl-3H-imidazo[4,5-b]pyridin-3-yl)benzyl)piperazine-1-carbonyl)picolinonitrile]
0.015 to 0.06 | N#Cc1cc(C(=O)N2CCN(Cc3ccc(-n4c(-c5cccnc5N)nc5ccc(-c6ccccc6)nc54)cc3)CC2)ccn1 [Example 172, 4-(4-(4-(2-(2-Aminopyridin-3-yl)-5-phenyl-3H-imidazo[4,5-b]pyridin-3-yl)benzyl)piperazine-1-carbonyl)picolinonitrile]
0.6 to 10 | N#Cc1nc2cc(F)cc(C(=O)N3CCN(Cc4ccc(-n5c(-c6cccnc6N)nc6cccnc65)cc4)CC3)c2s1 [Example 175, 7-(4-(4-(2-(2-aminopyridin-3-yl)-3H-imidazo[4,5-b]pyridin-3-yl)benzyl)piperazine-1-carbonyl)-5-fluorobenzo[d]thiazole-2-carbonitrile]
0.015 to 0.06 | N#Cc1nc2cc(F)cc(C(=O)N3CCN(Cc4ccc(-n5c(-c6cccnc6N)nc6ccc(-c7ccccc7)nc65)cc4)CC3)c2s1 [Example 180, 7-(4-(4-(2-(2-Aminopyridin-3-yl)-5-phenyl-3H-imidazo[4,5-b]pyridin-3-yl)benzyl)piperazine-1-carbonyl)-5-fluorobenzo[d]thiazole-2-carbonitrile]
0.015 to 0.06 | N#Cc1nc2c(C(=O)N3CCN(Cc4ccc(-n5c(-c6cccnc6N)nc6ccc(-c7ccccc7)nc65)cc4)CC3)cc(F)cc2s1 [Example 181, 4-(4-(4-(2-(2-Aminopyridin-3-yl)-5-phenyl-3H-imidazo[4,5-b]pyridin-3-yl)benzyl)piperazine-1-carbonyl)-6-fluorobenzo[d]thiazole-2-carbonitrile]
0.06 to 0.6 | N#Cc1nc2cc(F)cc(C(=O)NC3CCN(Cc4ccc(-n5c(-c6cccnc6N)nc6ccc(-c7ccccc7)nc65)cc4)CC3)c2s1 [Example 182, N-(1-(4-(2-(2-aminopyridin-3-yl)-5-phenyl-3H-imidazo[4,5-b]pyridin-3-yl)benzyl)piperidin-4-yl)-2-cyano-5-fluorobenzo[d]thiazole-7-carboxamide]
0.06 to 0.6 | N#Cc1nc2c(C(=O)NC3CCN(Cc4ccc(-n5c(-c6cccnc6N)nc6ccc(-c7ccccc7)nc65)cc4)CC3)cc(F)cc2s1 [Example 183, N-(1-(4-(2-(2-aminopyridin-3-yl)-5-phenyl-3H-imidazo[4,5-b]pyridin-3-yl)benzyl)piperidin-4-yl)-2-cyano-6-fluorobenzo[d]thiazole-4-carboxamide]
< 0.015 | N#Cc1nc2cc(C(=O)N3CCN(Cc4ccc(-n5c(-c6cccnc6N)nc6ccc(-c7ccccc7)nc65)cc4)CC3)ccc2s1 [Example 184, 5-(4-(4-(2-(2-aminopyridin-3-yl)-5-phenyl-3H-imidazo[4,5-b]pyridin-3-yl)benzyl)piperazine-1-carbonyl)benzo[d]thiazole-2-carbonitrile]
< 0.015 | N#Cc1nc2cc(C(=O)NC3CCN(Cc4ccc(-n5c(-c6cccnc6N)nc6ccc(-c7ccccc7)nc65)cc4)CC3)ccc2s1 [Example 185, N-(1-(4-(2-(2-aminopyridin-3-yl)-5-phenyl-3H-imidazo[4,5-b]pyridin-3-yl)benzyl)piperidin-4-yl)-2-cyanobenzo[d]thiazole-5-carboxamide]

Further lines, the compound ahead of its results:

SMILES | IC50 [µM]
N#Cc1nccnc1C(=O)N1CCN(Cc2ccc(-n3c(-c4cccnc4N)nc4cccnc43)cc2)CC1 [Example 164, 3-(4-(4-(2-(2-Aminopyridin-3-yl)-3H-imidazo[4,5-b]pyridin-3-yl)benzyl)piperazine-1-carbonyl)pyrazine-2-carbonitrile] | 0.6 to 10
N#Cc1ccc(C(=O)NC2CCN(Cc3ccc(-n4c(-c5cccnc5N)nc5cc(-c6ccccc6)cnc54)cc3)CC2)cn1 [Example 165, N-(1-(4-(2-(2-aminopyridin-3-yl)-6-phenyl-3H-imidazo[4,5-b]pyridin-3-yl)benzyl)piperidin-4-yl)-6-cyanonicotinamide] | 0.6 to 10
N#Cc1ccc(C(=O)NC2CCN(Cc3ccc(-n4c(-c5cccnc5N)nc5ccc(-c6ccccc6)nc54)cc3)CC2)cn1 [Example 167, N-(1-(4-(2-(2-Aminopyridin-3-yl)-5-phenyl-3H-imidazo[4,5-b]pyridin-3-yl)benzyl)piperidin-4-yl)-6-cyanonicotinamide] | 0.06 to 0.6
N#Cc1cccc(C(=O)NCc2ccc(-n3c(-c4cccnc4N)nc4cc(-c5ccccc5)cnc43)cc2)n1 [Example 168, N-(4-(2-(2-Aminopyridin-3-yl)-6-phenyl-3H-imidazo[4,5-b]pyridin-3-yl)benzyl)-6-cyanopicolinamide] | 0.6 to 10
N#Cc1cc(C(=O)NCc2ccc(-n3c(-c4cccnc4N)nc4cc(-c5ccccc5)cnc43)cc2)ccn1 [Example 169, N-(4-(2-(2-Aminopyridin-3-yl)-6-phenyl-3H-imidazo[4,5-b]pyridin-3-yl)benzyl)-2-cyanoisonicotinamide] | 0.06 to 0.6
N#Cc1nc2cc(F)cc(C(=O)NCc3ccc(-n4c(-c5cccnc5N)nc5cccnc54)cc3)c2s1 [Example 173, N-(4-(2-(2-aminopyridin-3-yl)-3H-imidazo[4,5-b]pyridin-3-yl)benzyl)-2-cyano-5-fluorobenzo[d]thiazole-7-carboxamide] | < 0.015
N#Cc1nc2c(C(=O)NCc3ccc(-n4c(-c5cccnc5N)nc5cccnc54)cc3)cc(F)cc2s1 [Example 174, N-(4-(2-(2-aminopyridin-3-yl)-3H-imidazo[4,5-b]pyridin-3-yl)benzyl)-2-cyano-6-fluorobenzo[d]thiazole-4-carboxamide] | 0.015 to 0.06
C[C@H]1CN(Cc2ccc(-n3c(-c4cccnc4N)nc4ccc(-c5ccccc5)nc43)cc2)C[C@H](C)N1c1ccnc(C#N)n1 [Example 192, 4-((2S,6S)-4-(4-(2-(2-Aminopyridin-3-yl)-5-phenyl-3H-imidazo[4,5-b]pyridin-3-yl)benzyl)-2,6-dimethylpiperazin-1-yl)pyrimidine-2-carbonitrile] | 0.015 to 0.06
C[C@H]1CN(Cc2ccc(-n3c(-c4cccnc4N)nc4ccc(-c5ccccc5)nc43)cc2)C[C@H](C)N1c1nccc(C#N)n1 [Example 193, 2-((2S,6S)-4-(4-(2-(2-Aminopyridin-3-yl)-5-phenyl-3H-imidazo[4,5-b]pyridin-3-yl)benzyl)-2,6-dimethylpiperazin-1-yl)pyrimidine-4-carbonitrile] | 0.06 to 0.6
C[C@H]1CN(Cc2ccc(-n3c(-c4cccnc4N)nc4ccc(-c5ccccc5)nc43)cc2)C[C@H](C)N1c1cc(C#N)ncn1 [Example 194, 6-((2S,6S)-4-(4-(2-(2-Aminopyridin-3-yl)-5-phenyl-3H-imidazo[4,5-b]pyridin-3-yl)benzyl)-2,6-dimethylpiperazin-1-yl)pyrimidine-4-carbonitrile] | 0.06 to 0.6
C[C@@H]1CN(Cc2ccc(-n3c(-c4cccnc4N)nc4ccc(-c5ccccc5)nc43)cc2)C[C@@H](C)N1c1ccnc(C#N)n1 [Example 195, 4-((2R,6R)-4-(4-(2-(2-aminopyridin-3-yl)-5-phenyl-3H-imidazo[4,5-b]pyridin-3-yl)benzyl)-2,6-dimethylpiperazin-1-yl)pyrimidine-2-carbonitrile] | < 0.015
C[C@@H]1CN(Cc2ccc(-n3c(-c4cccnc4N)nc4ccc(-c5ccccc5)nc43)cc2)C[C@@H](C)N1c1nccc(C#N)n1 [Example 196, 2-((2R,6R)-4-(4-(2-(2-aminopyridin-3-yl)-5-phenyl-3H-imidazo[4,5-b]pyridin-3-yl)benzyl)-2,6-dimethylpiperazin-1-yl)pyrimidine-4-carbonitrile] | 0.06 to 0.6
C[C@@H]1CN(Cc2ccc(-n3c(-c4cccnc4N)nc4ccc(-c5ccccc5)nc43)cc2)C[C@@H](C)N1c1cc(C#N)ncn1 [Example 197, 6-((2R,6R)-4-(4-(2-(2-aminopyridin-3-yl)-5-phenyl-3H-imidazo[4,5-b]pyridin-3-yl)benzyl)-2,6-dimethylpiperazin-1-yl)pyrimidine-4-carbonitrile] | 0.06 to 0.6
N#Cc1nccc(N2CCN(Cc3ccc(-n4c(-c5cccnc5N)nc5ccc(-c6ccccc6)nc54)cc3)CC23CC3)n1 [Example 198, 4-(7-(4-(2-(2-Aminopyridin-3-yl)-5-phenyl-3H-imidazo[4,5-b]pyridin-3-yl)benzyl)-4,7-diazaspiro[2.5]octan-4-yl)pyrimidine-2-carbonitrile] | 0.015 to 0.06
N#Cc1ccnc(N2CCN(Cc3ccc(-n4c(-c5cccnc5N)nc5ccc(-c6ccccc6)nc54)cc3)CC23CC3)n1 [Example 199, 2-(7-(4-(2-(2-Aminopyridin-3-yl)-5-phenyl-3H-imidazo[4,5-b]pyridin-3-yl)benzyl)-4,7-diazaspiro[2.5]octan-4-yl)pyrimidine-4-carbonitrile] | 0.06 to 0.6
N#Cc1cc(N2CCN(Cc3ccc(-n4c(-c5cccnc5N)nc5ccc(-c6ccccc6)nc54)cc3)CC23CC3)ncn1 [Example 200, 6-(7-(4-(2-(2-Aminopyridin-3-yl)-5-phenyl-3H-imidazo[4,5-b]pyridin-3-yl)benzyl)-4,7-diazaspiro[2.5]octan-4-yl)pyrimidine-4-carbonitrile] | 0.015 to 0.06
N#Cc1nccc(NC2C3CCC2CN(Cc2ccc(-n4c(-c5cccnc5N)nc5ccc(-c6ccccc6)nc54)cc2)C3)n1 (stereo not shown) [Example 201, 4-((3-(4-(2-(2-Aminopyridin-3-yl)-5-phenyl-3H-imidazo[4,5-b]pyridin-3-yl)benzyl)-3-azabicyclo[3.2.1]octan-8-yl)amino)pyrimidine-2-carbonitrile] | 0.06 to 0.6
